Series [1] addresses esterase of pig pancreas. The experiment in a line: Inhibition of esterase (decomposition of p-nitrophenyl acetate by crude lipase preparation). The series is classed as biochemical.
Protocol: Thus, a commercially available, crude lipase preparation obtained from pig pancreas is dissolved to a concentration of 0.5% (by weight) in a 0.05 M phosphate buffered solution (pH 7.0) containing 0.2% "Triton X-100" (a trade name of an emulsifier consisting of a polyethyleneglycol alkylphenylether, a product of Rohm & Haas Co., U.S.A.). 0.03 ml of this lipase solution, 2.92 ml of 0.05 M phosphate buffered solution (pH 7.0) and 0.025 ml of a solution containing an esterastin sample to be assayed are mixed together, and the resulting mixture (2.975 ml) is warmed at 20° C. for 3 minutes and then admixed with 0.025 ml of a solution containing 10 mg/ml of p-nitrophenyl acetate in methanol to start the reaction of p-nitrophenyl acetate with lipase. After the reaction was effected at 20° C. for 30 minutes, absorbance (a) at 400 nm of the resulting reaction solution is measured. On the other hand, absorbance (b) at 400 nm of a control reaction solution obtained from the blank test using the 0.05 M phosphate buffered solution containing no esterastin is measured in the same way as above. Degree (%) of inhibition to esterase is calculated according to the following equation: [formula]
For series [2], the system named is mice. The series can be described thus: Acute toxicity in mice. It is filed as in vivo. Conditions: 250 mg/kg, intraperitoneal injection. An excerpt:
As known substances which inhibit the esterase, there may be mentioned paradoxon and di-isopropyl fluorophosphate etc., which are highly toxic compounds. […] In these respects, it also can be confirmed that esterastin is a novel substance.

Series [3] relates to antibody-forming cells per spleen. The experiment in a line: Effect on formation of humoral antibody (Jerne plaque technique, SRBC-immunized mice). It is filed as in vivo, dd/Y mice. Conditions: for Number of antibody-forming cells per spleen (± S.E.): 10^8 SRBC i.v., day 4. The procedure: Groups of dd/Y mice (5 female mice per group, 6-8 weeks old) were immunized with 10^8 red blood cells of sheep as the anitgen (in the form of a suspension in physiological saline solution) by intravenous injection to develop the immunity. At the same time, 1 mg, 250 mcg, 62.5 mcg or 15.6 mcg of esterastin (in the form of a suspension in 1% DMSO-saline) per mouse were intraperitoneally injected into the separate groups of mice, respectively. On the 4 days after the immunization, the mice treated were sacrificed, spleen was teased and the number of the antibody-forming cells present in each mouse spleen was enumerated according to the method of Jerne (see N. K. Jerne, A. A. Nordin and C. Henry: "The agar plaque technique for recognizing antibody-producing cells. Cell-bound Antibodies." ed. B. Amos and H. Koprowski pp. 109-122, Wister Institute Press. Philadelphia, 1963).

The subject of series [4] is D.T.H. to SRBC in mice. The experiment in a line: Effect on cell-mediated immunity (Delayed Type Hypersensitivity to SRBC, footpad swelling). The series is classed as in vivo, dd/Y mice. Particulars: for Increase of footpad thickness: 24 hours after eliciting injection of 10^8 SRBC. The procedure:
Effect of esterastin on the cellular immunity was tested according to a known Delayed Type Hypersensitivity (D.T.H.) technique (see P. H. Lagrange, G. B. Mackaness and T. E. Mille: "J. Exp. Med.", 139, 1529-1539 (1974)) using mice immunized with sheep red blood cells as the antigen.
Thus, 10^8 sheep red blood cells suspended in 0.05 ml of physiological saline solution were immunized by subcutaneous injection to the one side of dd/Y mice hind footpad (5 mice per group, female, 6-weeks old) to establish delayed-type hypersensitivity. At the same time as this immunization, 1 mg/mouse, 250 mcg/mouse, 62.5 mcg/mouse or 15.6 mcg/mouse of esterastin were intraperitoneally injected to each test mouse. Four days later, 10^8 sheep rod blood cells were injected subcutaneously into the other side of each test mouse footpad for elicitation of D.T.H. response. 24 Hours after the eliciting injection, the thickness (in mm) of the footpad was measured to evaluate the degree of the swelling in the footpad which received the eliciting injection of sheep rod blood cells. The extent of the swelling in the footpad serves as a measure to estimate the cellular immunity involved.

The test system of series [5] is cultured cells. The series can be described thus: Cell toxicity to cultured cells. It is filed as cell-based. Conditions: concentration of 10 mcg/ml.
A short description of series [6]: Solubility in solvents. It is filed as physicochemical.

≈ marks a conversion by molar mass, not a printed value. Entries after “also recorded” stand apart in the source; their conditions may differ.

As for `CCCCCC=CCC=CCC(CC1OC(=O)C1CCCCCC)OC(=O)C(CC(N)=O)NC(C)=O` (stereo not shown) [esterastin], the IC50 in series [1] (p-nitrophenyl acetate as the substrate, read-out: concentration giving 50% inhibition of esterase) was found to be 0.041 nM. Besides, in series [1] (p-nitrophenyl acetate substrate, pH 7.0, 20° C., 30 minutes), the “ID50, dose giving 50% inhibition to esterase” value is 0.2 ng/mL (≈ 0.395 nM). Further, the acute toxicity result in series [2] is recorded as “no toxicity was observed at all; also recorded: does not give any sympton of toxicity at all”. Besides, the “Number of antibody-forming cells per spleen (± S.E.)” value in series [3] (1 mg per mouse i.p.) is recorded as 45,300 ± 3,300; in series [3] (15.6 mcg per mouse i.p.), 173,000 ± 19,600; in series [3] (62.5 mcg per mouse i.p.), 55,000 ± 5,700; in series [3] (250 mcg per mouse i.p.), 52,000 ± 2,300. In series [3] (1 mg to 62.5 mcg to mice), the “effect on number of the antibody forming cells (in words)” value was “remarkably reduces the number of the antibody forming cells”. For the same molecule, the “effect on development of D.T.H. (in words)” value in series [4] (1 mg to 250 mcg to mice) is “remarkably suppresses the development of D.T.H”. In addition, the figures for the “Increase of footpad thickness” value in series [4] (1 mg/mouse i.p.), in series [4] (62.5 mcg/mouse i.p.) and in series [4] (250 mcg/mouse i.p.) were 3.8 × 0.1 mm, 6.2 × 0.1 mm and 3.0 × 0.1 mm, respectively. Also, the “cell toxicity to the cultured cells” value in series [5] is reported as “no cell toxicity”. For the same molecule, in series [6] (petroleum ether and hexane), the “solubility in petroleum ether and hexane” value is given as “sparingly soluble; also recorded: substantially insoluble”. Further, the “solubility in organic solvents” value in series [6] (pyridine, dimethylsulfoxide, methanol, ethanol, acetone, ethyl acetate, butyl acetate, chloroform and benzene) is given as “readily soluble”. The solubility in water entry in series [6] (water) was “sparingly soluble; also recorded: substantially insoluble”.

These data come from patent US4242453A, “Cultivating streptomyces to produce an esterase inhibitor” (Zaidan Hojin Biseibutsu Kagaku Kenkyu Kai, priority 1977, dated 1980).
